Experimental data reported in US10167262B2, “Herbicidal substituted 3-arylpyrazoles” (FMC CORPORATION, priority 2014, dated 2019).

Tests used:
Format in all cases: in vivo
[1] = system: velvetleaf (Abutilon theophrasti); assay: Test C pre-/postemergence greenhouse test, plant response rating 0-100; conditions: Postemergence; for Plant response rating, Velvetleaf: scale 0 to 100
Summary of the method: (§1)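 Formulated in solvent with surfactant, test chemicals were sprayed on seeded loam/sand pots and, concurrently, on young plants 2–18 cm tall. Evaluation: visual, versus controls, day 13–15.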

[2] = system: morningglory (Ipomoea coccinea); assay: as above; conditions: Postemergence; for Plant response rating, Morningglory: scale 0 to 100
Summary of the method: as §1

[3] = system: lambsquarters (Chenopodium album); assay: as above; conditions: Postemergence; for Plant response rating, Lambsquarters: scale 0 to 100
Summary of the method: as §1

[4] = system: johnsongrass (Sorghum halepense); assay: as above; conditions: Postemergence; for Plant response rating, Johnsongrass: scale 0 to 100
Summary of the method: as §1

[5] = system: velvetleaf (Abutilon theophrasti); assay: Test A pre-/postemergence greenhouse herbicide test, visual injury rating 0-100; conditions: 1000 g ai/ha
Summary of the method: (§2)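 Greenhouse plants received compound either as directed soil spray at planting or as postemergence spray at the one- to two-leaf stage (2–10 cm). Evaluated after about 10 days by visual comparison with untreated controls.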

corn (Zea mays) = assay: as above; conditions: 1000 g ai/ha
Summary of the method: as §2

[6] = system: pigweed (Amaranthus retroflexus); assay: as above; conditions: 1000 g ai/ha
Summary of the method: as §2

[7] = system: giant foxtail (Setaria faberii); assay: as above; conditions: 1000 g ai/ha
Summary of the method: as §2

[8] = system: barnyardgrass (Echinochloa crus-galli); assay: as above; conditions: 1000 g ai/ha
Summary of the method: as §2

[9] = system: morningglory (Ipomoea spp.); assay: as above; conditions: 1000 g ai/ha
Summary of the method: as §2

[10] = system: large (Lg) crabgrass (Digitaria sanguinalis); assay: as above; conditions: 1000 g ai/ha
Summary of the method: as §2

[11] = system: wheat (Triticum aestivum); assay: as above; conditions: 1000 g ai/ha
Summary of the method: as §2

## Fc1cccc(NN=C(c2ccccc2)c2c[nH]nc2-c2cc(Cl)cc(Cl)c2)c1 [Compound 58]
[1]; 62 g ai/ha
  Plant response rating (0 to 100), Velvetleaf: 60
[1]; 125 g ai/ha
  Plant response rating (0 to 100), Velvetleaf: 65
[1]; 250 g ai/ha
  Plant response rating, Velvetleaf: 70
[1]; 500 g ai/ha
  Plant response rating, Velvetleaf: 75
[2]; 62 g ai/ha
  Plant response rating (0 to 100), Morningglory: 0
[2]; 125 g ai/ha
  Plant response rating (0 to 100), Morningglory: 0
[2]; 250 g ai/ha
  Plant response rating, Morningglory: 0
[2]; 500 g ai/ha
  Plant response rating, Morningglory: 0
[3]; 62 g ai/ha
  Plant response rating (0 to 100), Lambsquarters: 70
[3]; 125 g ai/ha
  Plant response rating (0 to 100), Lambsquarters: 100
[3]; 250 g ai/ha
  Plant response rating, Lambsquarters: 100
[3]; 500 g ai/ha
  Plant response rating, Lambsquarters: 100
[4]; 62 g ai/ha
  Plant response rating (0 to 100), Johnsongrass: 0
[4]; 125 g ai/ha
  Plant response rating (0 to 100), Johnsongrass: 25
[4]; 250 g ai/ha
  Plant response rating, Johnsongrass: 25
[4]; 500 g ai/ha
  Plant response rating, Johnsongrass: 25
[5]; Postemergence
  Plant response rating (0 to 100 scale), Velvetleaf: 90
[5]; Preemergence
  Plant response rating (0 to 100 scale), Velvetleaf: 90
Corn (Zea mays); Postemergence
  Plant response rating (0 to 100 scale), Corn: 0
Corn (Zea mays); Preemergence
  Plant response rating (0 to 100 scale), Corn: 0
[6]; Postemergence
  Plant response rating (0 to 100 scale), Pigweed: 90
[6]; Preemergence
  Plant response rating (0 to 100 scale), Pigweed: 100
[7]; Postemergence
  Plant response rating (0 to 100 scale), Foxtail, Giant: 0
[7]; Preemergence
  Plant response rating (0 to 100 scale), Foxtail, Giant: 0
[8]; Postemergence
  Plant response rating (0 to 100 scale), Barnyardgrass: 0
[8]; Preemergence
  Plant response rating (0 to 100 scale), Barnyardgrass: 0
[9]; Postemergence
  Plant response rating (0 to 100 scale), Morningglory: 0
[9]; Preemergence
  Plant response rating (0 to 100 scale), Morningglory: 0
[10]; Postemergence
  Plant response rating (0 to 100 scale), Crabgrass, Large: 0
[10]; Preemergence
  Plant response rating (0 to 100 scale), Crabgrass, Large: 0
[11]; Postemergence
  Plant response rating (0 to 100 scale), Wheat: 0
[11]; Preemergence
  Plant response rating (0 to 100 scale), Wheat: 0

## CCn1cc(C(=O)c2ccccc2)c(-c2cc(Br)cc(Br)c2)n1 [Compound 38]
[1]; 62 g ai/ha
  Plant response rating (0 to 100), Velvetleaf: 75
[1]; 125 g ai/ha
  Plant response rating (0 to 100), Velvetleaf: 90
[2]; 62 g ai/ha
  Plant response rating (0 to 100), Morningglory: 0
[2]; 125 g ai/ha
  Plant response rating (0 to 100), Morningglory: 5
[2]; 250 g ai/ha
  Plant response rating, Morningglory: 5
[3]; 62 g ai/ha
  Plant response rating (0 to 100), Lambsquarters: 75
[3]; 125 g ai/ha
  Plant response rating (0 to 100), Lambsquarters: 75
[3]; 250 g ai/ha
  Plant response rating, Lambsquarters: 100
[4]; 62 g ai/ha
  Plant response rating (0 to 100), Johnsongrass: 0
[4]; 125 g ai/ha
  Plant response rating (0 to 100), Johnsongrass: 0
[4]; 250 g ai/ha
  Plant response rating, Johnsongrass: 0
[5]; Postemergence
  Plant response rating (0 to 100 scale), Velvetleaf: 90
[5]; Preemergence
  Plant response rating (0 to 100 scale), Velvetleaf: 80
Corn (Zea mays); Postemergence
  Plant response rating (0 to 100 scale), Corn: 0
Corn (Zea mays); Preemergence
  Plant response rating (0 to 100 scale), Corn: 0
[6]; Postemergence
  Plant response rating (0 to 100 scale), Pigweed: 100
[6]; Preemergence
  Plant response rating (0 to 100 scale), Pigweed: 90
[7]; Postemergence
  Plant response rating (0 to 100 scale), Foxtail, Giant: 0
[7]; Preemergence
  Plant response rating (0 to 100 scale), Foxtail, Giant: 0
[8]; Postemergence
  Plant response rating (0 to 100 scale), Barnyardgrass: 0
[8]; Preemergence
  Plant response rating (0 to 100 scale), Barnyardgrass: 0
[9]; Preemergence
  Plant response rating (0 to 100 scale), Morningglory: 0
[10]; Postemergence
  Plant response rating (0 to 100 scale), Crabgrass, Large: 0
[10]; Preemergence
  Plant response rating (0 to 100 scale), Crabgrass, Large: 0
[11]; Postemergence
  Plant response rating (0 to 100 scale), Wheat: 0
[11]; Preemergence
  Plant response rating (0 to 100 scale), Wheat: 0
